Data published in patent US12571800B2, “Means and methods for treating angiogenesis-related diseases” (Heidelberg Biotech GmbH, priority 2011, dated 2026).

Experiments:
[1] = system: Fc-Endostatin-resistant LLC cells (Endo P4); test: Fc-Endostatin-resistant LLC tumors, passage 5, IGF1R inhibitor; format: in vivo, C57B16 mice
Description: Previously generated passage four Fc-Endostatin-resistant LLC cells (Endo P4, as described in the following examples) were subcutaneously injected to C57B16 mice.

[2] = system: Wild type LLC tumors; test: Wild type LLC lung cancer model, prevention trial; format: in vivo, C57B16 mice
Description: Wild type LLC tumors (10.000 cells) were implanted s.c. in C57B16 mice. Tumors were sham treated (PBS, control), with the reference FN-mimetic-peptide (“FN-Motif”) containing only the “[…]” sequence (SEQ ID NO: 8) or with murine Superstatin (SEQ ID NO: 7) at the dose of 50 μg peptide in 100 μl PBS every 12 h s.c. (n: 5 in each group). Treatment was started 4 days after tumor implantation (“prevention trial”) and continued for 24 days. […] Tumor size reaching 1000 mm^2 was considered as death event in the Kaplan-Meier analysis.
Tumors were sham treated (PBS), with the reference FN-mimetic-peptide containing only the “[…]” sequence (SEQ ID NO: 8; FN motif) or with murine Superstatin (SEQ ID NO: 7) at the dose of 50 μg peptide in 100 μl PBS every 12 h s.c. (n: 5 in each group). Treatment was started 4 days after tumor implantation (“prevention trial”) and continued for 24 days. […] Tumor size reaching 1000 mm^2 was considered as death event in the Kaplan-Meier analysis.

[3] = system: LLC FN −/− tumor cells; test: Fibronectin knockdown LLC tumor model; format: in vivo, C57B16 mice; conditions: treatment started day 4 post implantation; p<0.01 vs control or Fc-Endostatin
Description: In contrast, the Superstatin peptide (SEQ ID NO: 7) exerts potent tumor growth inhibition in FN −/− LLC tumors growing s.c. in C57B16 mice.
Once the efficacy of the Superstatin peptide (SEQ ID NO: 7) was confirmed, the inventors moved toward the second strategy to validate the proposed concept that FN signaling is critical for oligomeric NC-1 to exert their anti-angiogenic and anti-tumoral effects. […] LLC FN −/− tumor cells (100.000) were implanted in C57B16 mice and treatment with dimeric murine Fc-Endostatin vs. Superstatin was started on day 4 post implantation. Knockdown of FN rendered LLC tumors resistant to oligomeric NC-1 (Fc-Endostatin).

[4] = target: T1, fibronectin (Homo sapiens, UniProt P02751); test: Biacore (SPR) equilibrium binding constants to fibronectin; conditions: fibronectin 0.78 nM-100 nM over immobilized protein; values only in FIG. 1C
T1 sequence (P02751 32-2477): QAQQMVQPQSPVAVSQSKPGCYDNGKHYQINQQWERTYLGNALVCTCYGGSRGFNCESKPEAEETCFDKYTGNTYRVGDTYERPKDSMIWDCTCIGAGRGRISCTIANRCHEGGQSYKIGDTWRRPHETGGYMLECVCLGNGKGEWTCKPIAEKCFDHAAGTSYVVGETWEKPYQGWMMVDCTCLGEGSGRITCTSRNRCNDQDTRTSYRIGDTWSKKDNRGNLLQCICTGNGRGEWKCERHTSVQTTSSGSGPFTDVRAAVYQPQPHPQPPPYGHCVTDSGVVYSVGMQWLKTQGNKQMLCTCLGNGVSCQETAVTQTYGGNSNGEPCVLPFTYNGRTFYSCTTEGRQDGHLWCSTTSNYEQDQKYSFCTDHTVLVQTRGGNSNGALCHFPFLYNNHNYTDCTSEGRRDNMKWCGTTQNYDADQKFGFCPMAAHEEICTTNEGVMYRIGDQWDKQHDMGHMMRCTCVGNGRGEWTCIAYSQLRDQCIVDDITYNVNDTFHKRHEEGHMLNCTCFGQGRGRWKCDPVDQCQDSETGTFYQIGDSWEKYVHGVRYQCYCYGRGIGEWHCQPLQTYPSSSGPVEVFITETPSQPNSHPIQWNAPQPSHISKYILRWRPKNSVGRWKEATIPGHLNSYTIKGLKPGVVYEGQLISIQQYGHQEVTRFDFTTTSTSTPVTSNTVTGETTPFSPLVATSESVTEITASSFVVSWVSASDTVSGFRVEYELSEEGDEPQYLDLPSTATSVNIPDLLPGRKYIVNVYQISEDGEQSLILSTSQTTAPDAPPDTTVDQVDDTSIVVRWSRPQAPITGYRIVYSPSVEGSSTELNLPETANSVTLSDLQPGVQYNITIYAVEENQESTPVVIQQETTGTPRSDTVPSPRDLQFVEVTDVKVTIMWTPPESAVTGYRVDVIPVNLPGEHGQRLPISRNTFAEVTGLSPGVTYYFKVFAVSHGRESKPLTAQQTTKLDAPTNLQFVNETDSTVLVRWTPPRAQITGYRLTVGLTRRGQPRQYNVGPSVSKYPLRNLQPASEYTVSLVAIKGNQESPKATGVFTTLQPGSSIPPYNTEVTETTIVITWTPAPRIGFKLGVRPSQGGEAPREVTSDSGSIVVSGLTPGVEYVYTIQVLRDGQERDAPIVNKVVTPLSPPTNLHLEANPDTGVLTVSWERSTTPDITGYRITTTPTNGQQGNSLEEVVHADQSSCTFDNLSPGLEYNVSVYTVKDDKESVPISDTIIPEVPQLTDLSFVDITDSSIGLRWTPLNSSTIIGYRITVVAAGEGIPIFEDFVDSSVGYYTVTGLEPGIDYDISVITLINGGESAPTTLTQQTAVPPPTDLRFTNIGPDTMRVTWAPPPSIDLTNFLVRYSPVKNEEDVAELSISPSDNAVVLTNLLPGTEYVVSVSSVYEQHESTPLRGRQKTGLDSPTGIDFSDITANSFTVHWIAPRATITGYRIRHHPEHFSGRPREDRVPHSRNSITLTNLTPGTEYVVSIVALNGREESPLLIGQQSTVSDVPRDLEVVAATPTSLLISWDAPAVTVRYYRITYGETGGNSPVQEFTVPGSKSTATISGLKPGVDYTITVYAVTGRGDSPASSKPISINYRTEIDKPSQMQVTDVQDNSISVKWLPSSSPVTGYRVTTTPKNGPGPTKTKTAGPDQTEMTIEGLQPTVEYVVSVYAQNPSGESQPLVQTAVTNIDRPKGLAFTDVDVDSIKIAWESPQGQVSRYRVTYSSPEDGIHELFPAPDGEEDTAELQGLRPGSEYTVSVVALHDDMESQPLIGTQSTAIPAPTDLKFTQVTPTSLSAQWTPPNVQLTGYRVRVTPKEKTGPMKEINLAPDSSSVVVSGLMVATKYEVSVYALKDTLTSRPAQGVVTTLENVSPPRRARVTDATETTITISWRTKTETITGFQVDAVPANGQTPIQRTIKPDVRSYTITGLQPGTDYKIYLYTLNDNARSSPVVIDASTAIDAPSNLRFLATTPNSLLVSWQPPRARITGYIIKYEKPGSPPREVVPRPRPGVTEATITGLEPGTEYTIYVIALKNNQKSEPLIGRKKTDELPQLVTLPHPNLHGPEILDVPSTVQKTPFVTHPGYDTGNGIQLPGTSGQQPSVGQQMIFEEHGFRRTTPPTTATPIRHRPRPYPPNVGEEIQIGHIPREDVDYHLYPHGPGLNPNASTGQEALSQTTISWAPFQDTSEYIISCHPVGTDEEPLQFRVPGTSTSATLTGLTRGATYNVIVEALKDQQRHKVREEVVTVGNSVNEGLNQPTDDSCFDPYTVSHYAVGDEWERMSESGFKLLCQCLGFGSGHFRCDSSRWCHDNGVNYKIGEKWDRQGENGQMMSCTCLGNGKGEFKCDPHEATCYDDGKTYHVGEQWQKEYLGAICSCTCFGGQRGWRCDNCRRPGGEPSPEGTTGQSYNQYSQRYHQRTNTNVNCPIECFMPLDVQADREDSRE
Description: Fibronectin samples were prepared by serial dilution into 0.01 M Hepes, pH 7.4, 0.15 M NaCl, 0.05% Surfactant containing 1 mg/ml BSA in the range 0.78 nM-100 nM and flowed over control and derivatized surfaces for three minutes at a flow-rate of 60 μl/min. Dissociation phases were monitored for 5 minutes. Zero concentration blank buffer cycles were included as negative control samples. Sensor surfaces were regenerated using a 1 minute injection of 1 M ethanolamine, pH 8.5 following each interaction analysis cycle. Non-specific binding effects to sensor surface CM4 were not observed. Calculated ka, kd and KD are shown. Different curves correspond to different concentrations of fibronectin.
1.3 Surface Plasmon Resonance (SPR) binding assays. This analysis provides for a unique method for measuring equilibrium constants between two binding partners. It is able to evaluate the kinetics of an interaction by recording the rates of complex formation (ka) and dissociation (kd) followed by employing a software which determines the values of these two parameters. Equilibrium constant (KD) is obtained by calculating the ration of kd/ka Human VEGF (R&D), endostatin, endostatin dimer and human NC-1 (hNC-1) were diluted to 50 μg/ml in 10 mM Sodium Acetate, pH 5.5 and immobilized onto series S sensor chip(s) CM4 via a standard N-ethyl-N′-(dimethyl-aminopropyl)carbodiimide/N-hydroxysuccinimide (EDC/NHS) amine coupling procedures. Control surfaces were prepared similarly without protein derivatization and utilized as a reference surface for compound binding experiments.
Binding measurements were performed using a Biacore™ (GE Healthcare, Uppsala, Sweden) instrument which employs surface plasmon resonance to detect and monitor molecular interactions.
Data analysis was carried out using Biacore T100 evaluation software v1.1.1. Data were prepared by subtraction of reference surface data and blank buffer sample data, a procedure commonly referred to as ‘double referencing’ and fitted to a 1:1 langmuir binding model.
In order to measure equilibrium binding constants for the above proteins, a Biacore system was employed. […] Fc-endostatin imposes a dimeric structure on the two molecules of endostatin at the C-terminus of Fc dimer.

[5] = target: T1, fibronectin; test: Elisa, binding to fibronectin; conditions: proteins coated at 10 μg/ml; fibronectin as ligand at the same concentration
Description: Coating of proteins were done in PBS at concentration of 10 μg/ml. Fibronectin served as a ligand at the same concentration. All buffers contained 2% BSA, 0.1% Tween-20.
Three protein constructs human Fc (control), dimeric human (h)Fc-Endostatin and hFc-VEGF were employed. […] Artificial endostatin dimer was generated by introducing a single mutation in amino acid position 7 of endostatin (changing glutamine to cysteine) in the recombinant Fc-endostatin. Upon digestion of this mutant protein by enterokinase, endostatin dimer is produced, linked by a disulfide bond (Kuo et al., loc. cit.).

[6] = target: T2, VEGF (Homo sapiens, UniProt P15692); test: Competition with VEGF-ED-dimer (Fc-Endostatin) binding; conditions: preliminary data
T2 sequence (P15692 207-395 limits assumed): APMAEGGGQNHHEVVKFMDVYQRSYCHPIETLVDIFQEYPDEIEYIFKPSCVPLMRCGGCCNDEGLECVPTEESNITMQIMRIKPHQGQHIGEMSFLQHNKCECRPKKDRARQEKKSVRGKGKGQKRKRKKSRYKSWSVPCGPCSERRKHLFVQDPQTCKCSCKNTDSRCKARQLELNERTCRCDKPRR
Description: The first approach was to engineer a minimal peptide sequence that would mimic the key effects of the ED-FN complex. […] Preliminary data by the present inventors indicate that this region itself may be capable of binding to VEGF and that the two histidines (Zinc binding domain) in this peptide sequence may be critical for VEGF binding. […] On the other hand, fibronectin contains two active motifs that are critical for its binding to ITGA5B1, i.e. a PHSRN-(SEQ ID NO:20) and a RGD-dependent motif.

[7] = system: human melanoma cancer cells (A2058); test: A2058 human melanoma tumors in nude mice; format: in vivo; conditions: end of experiment; s.c. once a day; hNC-1 100 μg/mouse, endostatin 100 and 500 μg/mouse
Description: 4-6 tumor-bearing nude mice in each group were subcutaneously (s.c.) treated with hNC-1 (100 μg/mouse once a day), clinical-grade endostatin (100 and 500 μg/mouse once a day) or PBS. Treatment was stopped prior to the development of necrosis. Sites of injection were away from tumors. Tumor sizes and the ratio of treated/control (T/C) is shown.
1.4 Animal and tumor models. All animal procedures were carried out in compliance with Children's Hospital Boston guidelines Protocols were approved by the Institutional Animal Care and Use Committee. Eight-week-old male (24-27 g) nude/nude mice (Massachusetts General Hospital, Boston, MA) were used. Mice were acclimated, caged in groups of five in a barrier care facility, and fed animal chow and water ad libitum. Animals were euthanized by CO2 inhalation. Human melanoma cell line A2058 was used for animal studies. A suspension of 2×10^6 tumor cells in 0.1 ml of PBS was injected subcutaneously (s.c.) into the dorsa of mice at the proximal midline. Mice were weighed and tumors were monitored twice a week in two diameters with digital calipers. Tumor volumes were determined using a^2×b×0.52 (where a is the shortest and b is the longest diameter). Tumors were allowed to grow to ˜100 mm^3 and mice were randomized. Treatment was by bolus s.c. injections. After experiments were completed, tumors and organs were excised and fixed in either 4% paraformaldehyde or were snap frozen. Four to six mice were treated with each group.
2.6 hNC-1 suppresses tumor growth in vivo. In order to compare anti-tumor activities of NC-1 and endostatin, nude mice bearing human melanoma cell line A2058 were employed. Two doses of clinical grade endostatin differing by 5-fold in concentration of protein (low and high doses) were used. […] It cannot be ruled out the possibility that injected NC-1 becomes degraded upon entering the circulation.

[8] = cited from earlier work
[9] = target: α5β1 (Homo sapiens, UniProt P05556+P08648); test: Direct binding to integrin α5β1 (Elisa, immunoprecipitation, cell adhesion); conditions: immunoprecipitation and cell adhesion assays
Sequence of α5β1 (P08648 42-894 limits assumed): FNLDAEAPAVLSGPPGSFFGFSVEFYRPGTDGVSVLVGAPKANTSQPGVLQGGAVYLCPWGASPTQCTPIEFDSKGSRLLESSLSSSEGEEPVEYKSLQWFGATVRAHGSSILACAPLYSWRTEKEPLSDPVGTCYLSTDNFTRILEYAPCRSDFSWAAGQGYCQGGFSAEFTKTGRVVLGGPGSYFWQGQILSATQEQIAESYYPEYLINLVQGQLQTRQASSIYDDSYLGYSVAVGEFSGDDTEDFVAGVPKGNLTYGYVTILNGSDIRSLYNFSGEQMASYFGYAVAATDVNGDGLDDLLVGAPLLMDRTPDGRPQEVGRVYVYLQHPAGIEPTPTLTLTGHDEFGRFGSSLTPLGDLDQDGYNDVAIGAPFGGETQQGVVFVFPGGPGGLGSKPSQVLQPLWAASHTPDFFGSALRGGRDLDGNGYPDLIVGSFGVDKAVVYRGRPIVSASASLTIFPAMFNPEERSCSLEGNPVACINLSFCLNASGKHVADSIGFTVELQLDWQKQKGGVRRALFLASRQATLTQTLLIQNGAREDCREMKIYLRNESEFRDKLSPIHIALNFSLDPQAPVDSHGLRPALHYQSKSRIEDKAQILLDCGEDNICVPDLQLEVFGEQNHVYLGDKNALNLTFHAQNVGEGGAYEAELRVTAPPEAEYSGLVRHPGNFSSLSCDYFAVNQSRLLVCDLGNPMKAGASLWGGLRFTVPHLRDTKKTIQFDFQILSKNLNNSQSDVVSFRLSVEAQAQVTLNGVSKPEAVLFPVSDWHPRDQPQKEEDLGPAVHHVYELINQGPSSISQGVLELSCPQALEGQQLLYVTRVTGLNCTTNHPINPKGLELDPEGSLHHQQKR
Sequence of α5β1 (P08648 895-1049 limits assumed): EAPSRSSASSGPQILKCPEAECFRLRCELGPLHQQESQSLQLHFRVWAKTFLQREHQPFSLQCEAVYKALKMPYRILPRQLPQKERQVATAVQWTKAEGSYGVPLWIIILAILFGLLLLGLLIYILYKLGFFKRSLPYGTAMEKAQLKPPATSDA
Sequence of α5β1 (P05556 21-798): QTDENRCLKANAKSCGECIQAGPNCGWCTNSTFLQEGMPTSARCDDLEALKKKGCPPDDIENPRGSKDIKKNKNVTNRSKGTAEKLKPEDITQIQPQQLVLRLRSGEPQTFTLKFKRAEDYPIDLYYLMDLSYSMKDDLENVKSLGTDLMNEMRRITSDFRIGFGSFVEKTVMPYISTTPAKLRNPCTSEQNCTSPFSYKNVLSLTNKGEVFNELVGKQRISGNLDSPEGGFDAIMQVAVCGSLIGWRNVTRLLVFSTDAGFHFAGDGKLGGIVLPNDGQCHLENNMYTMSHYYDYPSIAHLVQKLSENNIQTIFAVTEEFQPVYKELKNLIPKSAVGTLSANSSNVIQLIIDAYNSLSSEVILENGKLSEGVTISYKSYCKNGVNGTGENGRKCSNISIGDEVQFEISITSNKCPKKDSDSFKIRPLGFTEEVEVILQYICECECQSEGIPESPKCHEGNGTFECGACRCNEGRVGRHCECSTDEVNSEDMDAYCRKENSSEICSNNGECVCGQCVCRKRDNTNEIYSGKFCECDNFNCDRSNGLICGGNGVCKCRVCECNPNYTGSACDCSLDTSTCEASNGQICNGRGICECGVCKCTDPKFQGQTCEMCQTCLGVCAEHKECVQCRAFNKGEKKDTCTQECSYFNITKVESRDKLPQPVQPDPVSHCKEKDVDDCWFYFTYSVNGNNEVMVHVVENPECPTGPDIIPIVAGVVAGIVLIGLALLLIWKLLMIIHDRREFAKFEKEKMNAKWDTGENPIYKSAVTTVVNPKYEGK
Description: Endostatin binding to two integrins αvβ3 and α5β1 was first reported in 2001 (Rehn et al. 2001, PNAS 98, 1024). Presumably, such a binding inhibits interactions of fibronectin with these integrins. […] Endostatin lacks the sequence RGD. Consequently, such a binding must be mediated by other amino acids on endostatin.

[10] = in vivo; cited from earlier work
[11] = 50 μg peptide every 12 h s.c., day 4 on for 24 days

## COc1cc([C@@H]2c3cc4c(cc3[C@H](O)[C@H]3COC(=O)[C@@H]23)OCO4)cc(OC)c1OC [PPP, cyclolignan picropodophyllin]
[1]; 20 mg/kg IP, sequential to mFc-Endo
  tumor growth, sequential IGF1R inhibition: inhibited tumor growth
[1]; concurrent with mFc-Endo
  tumor growth, concurrent administration: only partially reversed the enhanced growth kinetic
[1]; mouse, in vivo
  protein expression in passage 5 LLC tumors (Western blot): partially reversed this phenotype

## FN-Motif: LYAVTGRGDSPASSK (SEQ ID NO: 8; same sequence as SEQ ID NO: 11) (listed as Mus musculus) [reference compound]
[2]; [11]
  tumor growth: no significant improvement in prevention of tumor growth

## Superstatin: HTHQDFQPVLHLVLYAVTGRGDSPASSK (SEQ ID NO: 7), NC1-ED Motif-FN-Motif hybrid (listed as Mus musculus)
[2]; [11]
  tumor growth: potently inhibit tumor growth
[2]; 50 μg peptide every 12 h s.c., day 4 on for 24 days, p<0.03 by log-rank test
  survival (Kaplan-Meier) as compared to control: significantly prolonged survival
[2]; n: 5 in each group
  tumors growing during the treatment period: only a single tumor grew
[3]
  tumor growth in FN −/− LLC tumors: significantly inhibited tumor growth

## VEGF [reference compound]
[4]
  equilibrium binding constant to fibronectin (Biacore): High affinity constants
[5]
  binding to fibronectin (Elisa): bound fibronectin

## mP1-H1/3A: ATAQDFQPVLHLVALNTPLSGGMRGIR (SEQ ID NO: 19) (mP1-H1/3A)
[6]
  competition with VEGF-ED-dimer (Fc-Endostatin) binding: failed to compete

B1: endostatin: 183-amino acid proteolytic cleavage fragment corresponding to the C-terminus of collagen 18 (protein, UniProt P39060 1572-1754, looked up)
Endostatin: HSHRDFQPVLHLVALNSPLSGGMRGIRGADFQCFQQARAVGLAGTFRAFLSSRLQDLYSIVRRADRAAVPIVNLKDELLFPSWEALFSGSEGPLKPGARIFSFDGKDVLRHPTWPQKSVWHGSDPNGRRLTESYCETWRTEAPSATGQASSLLGGRLLGQSAASCHHAYIVLCIENSFMTASK
modifications: Endostatin
[7]
  inhibition of tumor growth: 48%
[8]; in vivo
  anti-tumor activity in clinical trials: did not demonstrate substantial endostatin anti-tumor activity
[8]; variety of dose schedules
  safety in clinical trials: very safe drug
[4]
  equilibrium binding constant to fibronectin (Biacore): No binding was detected
[9]
  direct binding to α5β1: without success
[10]
  half-life in circulation: very short
[5]
  binding to fibronectin (Elisa): did not

B2: Endostatin dimer: disulfide-linked endostatin dimer, glutamine to cysteine at position 7, released from Fc-endostatin by enterokinase (protein, UniProt P39060 1572-1754, looked up, variant Q7C)
Endostatin: HSHRDFCPVLHLVALNSPLSGGMRGIRGADFQCFQQARAVGLAGTFRAFLSSRLQDLYSIVRRADRAAVPIVNLKDELLFPSWEALFSGSEGPLKPGARIFSFDGKDVLRHPTWPQKSVWHGSDPNGRRLTESYCETWRTEAPSATGQASSLLGGRLLGQSAASCHHAYIVLCIENSFMTASK
modifications: Endostatin disulfide-linked dimer
notes: disulfide-linked endostatin dimer, glutamine to cysteine at position 7, released from Fc-endostatin by enterokinase
[4]
  equilibrium binding constant to fibronectin (Biacore): High affinity constants
[5]
  binding to fibronectin (Elisa): bound fibronectin
